Data set [1] concerns the target Gamma-aminobutyric acid type B receptor subunit 1 (Homo sapiens) (UniProt Q9UBS5). The data set can be described thus: Inhibition of GABAB1A at compound concentration of 10.0 uM in the Eurofins-Panlabs radioligand binding assay (Eurofins_assay_228610). The note with it: Compound concentration 10.0 uM. Set-up: ligand concentration 4 nM.
Data set [2] deals with Endothelin-1 receptor (Homo sapiens) (UniProt P25101). The note with it: Compound concentration 10.0 uM.
In data set [3] the target is Sigma non-opioid intracellular receptor 1 (Homo sapiens) (UniProt Q99720). Kind of data set: Sigma 1 Eurofins-Panlabs radioligand binding assay. Set-up: ligand concentration 8 nM. The note with it: Compound concentration 10.0 uM.
The species named for another data set is Rattus norvegicus. The note with it: Compound concentration 10.0 uM.
The target in data set [4] is Estrogen receptor (Homo sapiens) (UniProt P03372). The note with it: Compound concentration 10.0 uM.
Data set [5] concerns the target 5-hydroxytryptamine receptor 2C (Homo sapiens, UniProt P28335). Kind of data set: GPCRScan assay: inhibition of 5-HT2C. Set-up: radioligand conc. used [nm] 1.0 – 2.5, parental cells HEK T.
Data set [6] addresses Kappa-type opioid receptor (Homo sapiens) (UniProt P41145). The note with it: Compound concentration 10.0 uM.
The target in data set [7] is Sodium-dependent serotonin transporter (Homo sapiens) (UniProt P31645). The note with it: Compound concentration 10.0 uM.
The target of data set [8] is Melatonin receptor type 1A (Homo sapiens) (UniProt P48039). Kind of data set: Inhibition of Melatonin MT1 at 10 µM in the Eurofins-Panlabs radioligand binding assay (Eurofins_assay_251600). Set-up: ligand concentration 0.05 nM. To be noted: Compound concentration 10.0 uM.
Data set [9] concerns the target Beta-2 adrenergic receptor (Homo sapiens) (UniProt P07550). The note with it: Compound concentration 10.0 uM.
The target in data set [10] is L-type calcium channel, dihydropyridine site (Cav1.2 alpha-1C) (Homo sapiens, UniProt Q13936). Kind of data set: Inhibition of Calcium Channel L-Type, Dihydropyridine at 10 µM in the Eurofins-Panlabs radioligand binding assay (Eurofins_assay_214600). Set-up: ligand concentration 0.1 nM, non-specific ligand with concentration 1 µM Nitrendipine, incubation time 90 min, incubation temperature 25 °C. To be noted: Wistar, rat, rat cerebral cortex preparation, probe [3H] Nitrendipine, 0.1 nM; compound concentration 10 uM; target entry is the homologue from another species.

In data set [11] the target is Sodium-dependent dopamine transporter (Homo sapiens) (UniProt Q01959).
The target of data set [12] is T1, Muscarinic acetylcholine receptor M1 (Homo sapiens) (UniProt P11229).
T1 sequence (whole entry): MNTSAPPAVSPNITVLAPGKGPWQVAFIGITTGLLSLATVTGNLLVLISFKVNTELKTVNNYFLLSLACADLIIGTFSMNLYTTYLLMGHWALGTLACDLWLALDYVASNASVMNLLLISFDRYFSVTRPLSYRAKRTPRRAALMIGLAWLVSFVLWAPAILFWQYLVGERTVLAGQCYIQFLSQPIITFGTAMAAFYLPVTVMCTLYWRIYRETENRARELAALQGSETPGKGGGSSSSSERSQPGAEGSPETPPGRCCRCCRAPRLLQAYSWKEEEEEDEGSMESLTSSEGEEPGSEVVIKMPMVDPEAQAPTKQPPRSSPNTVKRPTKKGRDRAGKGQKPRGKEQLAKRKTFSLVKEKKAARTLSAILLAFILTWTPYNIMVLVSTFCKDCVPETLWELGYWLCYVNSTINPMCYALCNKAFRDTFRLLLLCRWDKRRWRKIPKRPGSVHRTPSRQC
To be noted: Compound concentration 10.0 uM.

Data set [13] addresses Sodium-dependent dopamine transporter (Homo sapiens) (UniProt Q01959). The note with it: Compound concentration 10.0 uM.
Data set [14] addresses Neuropeptide Y receptor type 2 (Homo sapiens) (UniProt P49146). Kind of data set: Inhibition of Neuropeptide Y Y2 at 10 µM in the Eurofins-Panlabs radioligand binding assay (Eurofins_assay_257110). To be noted: Compound concentration 10.0 uM.
The target of data set [15] is Mu-type opioid receptor (Homo sapiens) (UniProt P35372). The note with it: Compound concentration 10.0 uM.
Data set [16] has as its target Platelet-activating factor receptor (Homo sapiens) (UniProt P25105). Kind of data set: Inhibition of Platelet Activating Factor (PAF) at 10 µM in the Eurofins-Panlabs radioligand binding assay (Eurofins_assay_265010). The note with it: Compound concentration 10.0 uM.
The species entered for another data set is Mus musculus. Kind of data set: Inhibition of Phorbol Ester at 10 µM in the Eurofins-Panlabs radioligand binding assay (Eurofins_assay_264500). Set-up: ligand concentration 3 nM. The note with it: Compound concentration 10.0 uM.
Data set [17] concerns the target Beta-2 adrenergic receptor (Homo sapiens) (UniProt P07550). To be noted: Compound concentration 10.0 uM. The source holds these as a separate data set.
Data set [18] concerns the target Histamine H1 receptor (Homo sapiens) (UniProt P35367). To be noted: Compound concentration 10.0 uM.
In data set [19] the target is Acetylcholine receptor subunit alpha (Homo sapiens) (UniProt P02708). The data set can be described thus: Inhibition of Nicotinic Acetylcholine D1, Bungarotoxin at 10 µM in the Eurofins-Panlabs radioligand binding assay (Eurofins_assay_258700). The note with it: Compound concentration 10.0 uM.
Data set [20] deals with Purinergic P2Y (Rattus norvegicus) (UniProt O35811+Q9EPX4+P49651+Q63371+P41232+O35881+Q6GUG4). The note with it: Compound concentration 10.0 uM.
Data set [21] addresses Cysteinyl leukotriene receptor 1 (Homo sapiens) (UniProt Q9Y271). The data set can be described thus: Inhibition of Leukotriene, Cysteinyl CysLT1 at 10 µM in the Eurofins-Panlabs radioligand binding assay (Eurofins_assay_250460). Set-up: ligand concentration 0.3 nM, non-specific ligand with concentration 0.3 µM Leukotriene D4, incubation time 30 min, incubation temperature 25 °C. To be noted: Compound concentration 10.0 uM.

Data set [22] addresses Glutamate NMDA receptor (Rattus norvegicus) (UniProt P35439+Q00959+Q00960+Q00961+Q62645+Q8VHN2+Q9R1M7). To be noted: Compound concentration 10.0 uM.
For data set [23], the target named is Delta-type opioid receptor (Homo sapiens) (UniProt P41143). To be noted: Compound concentration 10.0 uM.
Data set [24] has as its target Adenosine receptor A1 (Homo sapiens) (UniProt P30542). The note with it: Compound concentration 10.0 uM.
The species entered for the next data set is Oryctolagus cuniculus. The data set can be described thus: Inhibition of Purinergic P2X at 10 µM in the Eurofins-Panlabs radioligand binding assay (Eurofins_assay_268700). To be noted: Compound concentration 10.0 uM. It is filed as protein assay.
For data set [25], the target named is Cannabinoid receptor 1 (Homo sapiens) (UniProt P21554). To be noted: Compound concentration 10.0 uM.
The target of data set [26] is Endothelin receptor type B (Homo sapiens) (UniProt P24530). To be noted: Compound concentration 10.0 uM.
Data set [27] concerns the target Adenosine receptor A2a (Homo sapiens) (UniProt P29274). To be noted: Compound concentration 10.0 uM.
Data set [28] concerns the target Substance-P receptor (Homo sapiens) (UniProt P25103). Kind of data set: Inhibition of Tachykinin NK1 at 10 µM in the Eurofins-Panlabs radioligand binding assay (Eurofins_assay_255520). Set-up: ligand concentration 0.8 nM. To be noted: Compound concentration 10.0 uM.
For data set [29], the target named is 5-hydroxytryptamine receptor 1E (Homo sapiens) (UniProt P28566). The note with it: Compound concentration 10.0 uM.
Data set [30] has as its target Alpha-2C adrenergic receptor (Homo sapiens, UniProt P18825). The data set can be described thus: GPCRScan assay: inhibition of Alpha2C. Set-up: radioligand conc. used [nm] 0.5 – 1.0, parental cells stable MDCK.
The target in data set [31] is Mitotic checkpoint serine/threonine-protein kinase BUB1 (Homo sapiens) (UniProt O43683). The note with it: Compound concentration 1000.0 nM.

For orientation: inhibition means the drop in the measured response relative to a control, in per cent. As a reminder, the residual activity is the activity still measured, relative to the control.

Sequence of Sodium-dependent dopamine transporter (Homo sapiens) (Q01959 whole entry): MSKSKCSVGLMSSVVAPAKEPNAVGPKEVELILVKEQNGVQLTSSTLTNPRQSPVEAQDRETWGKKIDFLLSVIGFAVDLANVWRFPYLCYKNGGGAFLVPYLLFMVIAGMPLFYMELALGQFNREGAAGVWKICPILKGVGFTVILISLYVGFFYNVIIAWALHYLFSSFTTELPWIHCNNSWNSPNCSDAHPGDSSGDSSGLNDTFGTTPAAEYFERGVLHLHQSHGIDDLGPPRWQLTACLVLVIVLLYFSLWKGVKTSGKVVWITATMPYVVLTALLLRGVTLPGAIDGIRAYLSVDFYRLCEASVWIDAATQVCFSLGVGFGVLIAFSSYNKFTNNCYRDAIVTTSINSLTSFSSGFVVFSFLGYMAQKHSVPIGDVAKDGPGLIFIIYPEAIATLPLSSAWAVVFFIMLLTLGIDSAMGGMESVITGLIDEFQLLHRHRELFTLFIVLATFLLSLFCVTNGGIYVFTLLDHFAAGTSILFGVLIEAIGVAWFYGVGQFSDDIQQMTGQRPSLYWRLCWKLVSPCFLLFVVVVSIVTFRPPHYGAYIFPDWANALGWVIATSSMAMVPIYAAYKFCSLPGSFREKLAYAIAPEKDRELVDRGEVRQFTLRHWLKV
Sequence of 5-hydroxytryptamine receptor 2C (P28335 whole entry): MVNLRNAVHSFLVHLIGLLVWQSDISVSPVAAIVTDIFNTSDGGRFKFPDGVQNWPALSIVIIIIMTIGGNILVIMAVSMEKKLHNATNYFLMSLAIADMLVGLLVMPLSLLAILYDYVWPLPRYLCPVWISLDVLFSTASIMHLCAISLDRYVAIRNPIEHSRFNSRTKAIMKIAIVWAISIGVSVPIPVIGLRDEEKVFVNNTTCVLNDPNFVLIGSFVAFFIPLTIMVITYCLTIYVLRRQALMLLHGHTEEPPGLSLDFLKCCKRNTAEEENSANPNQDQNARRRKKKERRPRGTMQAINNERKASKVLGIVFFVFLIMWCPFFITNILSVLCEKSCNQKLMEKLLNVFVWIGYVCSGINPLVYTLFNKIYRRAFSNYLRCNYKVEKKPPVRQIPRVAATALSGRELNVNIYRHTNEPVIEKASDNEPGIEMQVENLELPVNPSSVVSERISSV
Sequence of Beta-2 adrenergic receptor (Homo sapiens) (P07550 whole entry, looked up): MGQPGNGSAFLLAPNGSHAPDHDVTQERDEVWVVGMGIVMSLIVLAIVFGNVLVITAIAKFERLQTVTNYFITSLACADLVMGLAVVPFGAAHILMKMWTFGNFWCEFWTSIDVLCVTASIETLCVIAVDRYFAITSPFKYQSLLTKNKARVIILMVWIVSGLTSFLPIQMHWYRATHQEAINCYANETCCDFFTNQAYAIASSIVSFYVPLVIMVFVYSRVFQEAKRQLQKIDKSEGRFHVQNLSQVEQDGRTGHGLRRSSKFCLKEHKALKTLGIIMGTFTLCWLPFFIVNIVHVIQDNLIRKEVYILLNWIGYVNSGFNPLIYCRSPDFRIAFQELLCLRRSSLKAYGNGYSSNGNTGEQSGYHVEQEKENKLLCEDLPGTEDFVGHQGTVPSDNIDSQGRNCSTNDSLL
Sequence of Neuropeptide Y receptor type 2 (Homo sapiens) (P49146 whole entry): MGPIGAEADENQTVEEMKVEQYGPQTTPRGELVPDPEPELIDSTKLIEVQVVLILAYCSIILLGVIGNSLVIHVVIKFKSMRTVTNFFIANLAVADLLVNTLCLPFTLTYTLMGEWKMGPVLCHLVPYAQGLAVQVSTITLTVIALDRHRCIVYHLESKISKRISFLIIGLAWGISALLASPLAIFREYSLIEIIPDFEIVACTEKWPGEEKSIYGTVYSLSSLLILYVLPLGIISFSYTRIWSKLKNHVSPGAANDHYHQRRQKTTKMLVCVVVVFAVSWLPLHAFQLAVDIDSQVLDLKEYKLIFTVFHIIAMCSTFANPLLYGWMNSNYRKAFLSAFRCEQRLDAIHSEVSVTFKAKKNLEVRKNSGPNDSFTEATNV
Sequence of Mu-type opioid receptor (Homo sapiens) (P35372 whole entry): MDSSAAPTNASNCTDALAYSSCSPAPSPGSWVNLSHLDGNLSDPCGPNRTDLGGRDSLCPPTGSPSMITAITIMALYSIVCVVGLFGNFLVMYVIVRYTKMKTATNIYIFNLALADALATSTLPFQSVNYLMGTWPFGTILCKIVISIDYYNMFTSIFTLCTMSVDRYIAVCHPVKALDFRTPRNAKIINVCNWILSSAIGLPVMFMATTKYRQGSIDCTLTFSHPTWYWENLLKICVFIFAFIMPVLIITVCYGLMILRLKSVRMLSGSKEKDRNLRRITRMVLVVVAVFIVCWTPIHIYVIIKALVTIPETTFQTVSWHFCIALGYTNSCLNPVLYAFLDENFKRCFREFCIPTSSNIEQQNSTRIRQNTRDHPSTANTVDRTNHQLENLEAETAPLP
Sequence of Endothelin receptor type B (Homo sapiens) (P24530 whole entry): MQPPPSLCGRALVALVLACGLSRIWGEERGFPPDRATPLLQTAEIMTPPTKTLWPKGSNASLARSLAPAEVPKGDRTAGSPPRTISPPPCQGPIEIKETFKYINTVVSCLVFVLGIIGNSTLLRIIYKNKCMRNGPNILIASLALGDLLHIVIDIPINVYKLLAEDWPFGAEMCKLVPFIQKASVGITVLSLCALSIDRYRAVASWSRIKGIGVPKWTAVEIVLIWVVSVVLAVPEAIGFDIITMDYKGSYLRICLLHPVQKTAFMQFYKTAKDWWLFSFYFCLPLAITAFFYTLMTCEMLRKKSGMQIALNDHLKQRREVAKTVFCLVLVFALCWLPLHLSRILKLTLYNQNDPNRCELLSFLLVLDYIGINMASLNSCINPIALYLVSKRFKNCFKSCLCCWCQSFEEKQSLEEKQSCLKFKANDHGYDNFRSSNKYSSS
Sequence of Adenosine receptor A2a (Homo sapiens) (P29274 whole entry): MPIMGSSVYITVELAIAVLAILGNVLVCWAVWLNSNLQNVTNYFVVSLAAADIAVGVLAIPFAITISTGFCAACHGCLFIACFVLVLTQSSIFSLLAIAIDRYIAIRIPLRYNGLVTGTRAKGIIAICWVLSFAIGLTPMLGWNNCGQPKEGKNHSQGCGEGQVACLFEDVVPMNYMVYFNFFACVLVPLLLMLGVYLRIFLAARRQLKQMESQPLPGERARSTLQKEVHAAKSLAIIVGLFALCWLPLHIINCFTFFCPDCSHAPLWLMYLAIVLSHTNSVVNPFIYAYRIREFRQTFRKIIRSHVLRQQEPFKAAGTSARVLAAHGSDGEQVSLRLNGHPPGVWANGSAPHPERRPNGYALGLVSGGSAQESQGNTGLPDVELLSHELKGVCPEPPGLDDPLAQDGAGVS
Sequence of Adenosine receptor A1 (Homo sapiens) (P30542 whole entry): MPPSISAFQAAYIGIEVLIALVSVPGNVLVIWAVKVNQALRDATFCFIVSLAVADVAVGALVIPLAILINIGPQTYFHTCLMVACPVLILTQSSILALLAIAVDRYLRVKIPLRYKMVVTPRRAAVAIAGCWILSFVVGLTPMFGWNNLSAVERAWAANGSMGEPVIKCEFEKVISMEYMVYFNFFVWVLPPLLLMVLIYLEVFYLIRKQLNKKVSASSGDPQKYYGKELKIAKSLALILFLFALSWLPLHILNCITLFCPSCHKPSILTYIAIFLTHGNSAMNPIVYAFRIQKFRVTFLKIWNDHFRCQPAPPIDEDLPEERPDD
Sequence of Cannabinoid receptor 1 (Homo sapiens) (P21554 whole entry): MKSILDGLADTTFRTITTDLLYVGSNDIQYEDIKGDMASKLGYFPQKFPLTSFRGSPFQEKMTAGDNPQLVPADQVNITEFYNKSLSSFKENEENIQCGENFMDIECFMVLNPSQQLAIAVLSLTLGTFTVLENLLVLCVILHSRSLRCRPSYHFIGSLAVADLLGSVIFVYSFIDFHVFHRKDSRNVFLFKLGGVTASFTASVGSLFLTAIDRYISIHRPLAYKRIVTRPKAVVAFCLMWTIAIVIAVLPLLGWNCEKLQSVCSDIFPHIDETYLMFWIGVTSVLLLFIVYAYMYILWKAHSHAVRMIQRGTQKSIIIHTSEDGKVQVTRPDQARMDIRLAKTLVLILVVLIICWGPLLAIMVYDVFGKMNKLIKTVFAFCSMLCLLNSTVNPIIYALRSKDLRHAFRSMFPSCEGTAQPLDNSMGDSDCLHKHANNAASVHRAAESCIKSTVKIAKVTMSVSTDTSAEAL
Sequence of Histamine H1 receptor (Homo sapiens) (P35367 whole entry): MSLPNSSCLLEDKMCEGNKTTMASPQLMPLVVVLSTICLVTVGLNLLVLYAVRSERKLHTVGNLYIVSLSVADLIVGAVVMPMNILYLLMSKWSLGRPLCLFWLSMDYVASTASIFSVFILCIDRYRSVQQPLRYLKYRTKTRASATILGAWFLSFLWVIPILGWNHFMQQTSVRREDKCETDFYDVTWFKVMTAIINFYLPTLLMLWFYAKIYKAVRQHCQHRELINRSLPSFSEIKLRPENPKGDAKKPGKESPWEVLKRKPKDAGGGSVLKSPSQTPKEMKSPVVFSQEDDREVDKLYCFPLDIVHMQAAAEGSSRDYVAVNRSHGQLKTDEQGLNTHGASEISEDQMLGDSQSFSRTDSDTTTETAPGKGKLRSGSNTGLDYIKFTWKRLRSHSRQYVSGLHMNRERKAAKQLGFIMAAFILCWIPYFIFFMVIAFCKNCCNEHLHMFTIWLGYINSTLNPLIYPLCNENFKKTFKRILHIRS
Sequence of Melatonin receptor type 1A (Homo sapiens) (P48039 whole entry): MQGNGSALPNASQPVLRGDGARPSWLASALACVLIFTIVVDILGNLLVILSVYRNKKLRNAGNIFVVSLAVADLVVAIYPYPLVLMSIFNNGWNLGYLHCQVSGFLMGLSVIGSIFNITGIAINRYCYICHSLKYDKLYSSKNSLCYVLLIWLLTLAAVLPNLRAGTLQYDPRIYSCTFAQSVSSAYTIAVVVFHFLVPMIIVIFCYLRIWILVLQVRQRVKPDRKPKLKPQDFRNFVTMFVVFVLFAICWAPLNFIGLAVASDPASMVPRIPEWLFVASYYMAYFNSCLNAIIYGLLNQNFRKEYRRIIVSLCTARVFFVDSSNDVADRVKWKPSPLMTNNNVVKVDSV

For `NS(=O)(=O)c1cc(NC(=O)Cc2ccccc2)ccc1Oc1cccc(Cl)c1` [BAY-1797], the inhibition was 14% in data set [1]; 3% in [2]; 19% in data set [3]; -10% in the data set listed under Rattus norvegicus; 5% in [4]; 10% in [6]. Moreover, the inhibition in data set [7] is 4%; in [8] it was 13%; in [9], 2%; in [11] (Compound concentration 3.0 uM) it was 60%; in data set [11] (Compound concentration 10.0 uM) it was 81%; in data set [12], -6%. In addition, the inhibition in data set [13] was 37%; in data set [14], 8%; in data set [15], 9%; in data set [16] it was -2%; in the data set filed under Mus musculus it was 4%; in data set [17] it was 18.9%. Besides, the inhibition in [18] was 15%; in [19] it was -4%; in data set [20] it was 14%; in data set [21], 8%; in data set [22], 23%; in [23], 4%. Also, the inhibition in [24] was 35%; in the data set listed under Oryctolagus cuniculus, 5%; in [25], 44%; in data set [26], -1%; in [27] it was 14%; in [28] it was 4%. Moreover, the Ki in data set [5] (read-out: Ki) is 6.52 µM; in [5] (read-out: pKi (converted)) it was 5.89 µM. Further, in data set [10], the inhibition at 90 min, 10 µM was 21% (not active).

Take `NS(=O)(=O)c1cc(NC(=O)C2(c3ccccc3Cl)CC2)ccc1Oc1cccc(Cl)c1` [BAY-207]: the inhibition in data set [29] is -1.46%. In addition, the Ki in [30] was determined as 0.654 µM. For the same molecule, in data set [31], the residual activity was 95%.

(Values after ChEMBL document CHEMBL4507265 (2021).)
